Data published in patent US6737383B1, “Herbicidal oxadiazolidines” (priority 1999, dated 2004).

Key:
velvetleaf = assay: Test B pre/postemergence velvetleaf; assay type: in vivo, Abutilon theophrasti
Outline: (§1)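 Herbicidal effect was estimated by eye on a ten-point control scale after plants spent twelve to sixteen days in a greenhouse following soil or foliar treatment. Foliar sprays targeted plants at one to four leaves; all doses were formulated in a non-phytotoxic solvent with surfactant.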

smallflower flatsedge = assay: Test B flood test smallflower flatsedge; assay type: in vivo, Cyperus difformis
Outline: (§2)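 Read-out is a visual response score from 0 (no effect) to 10 (complete control), assigned by comparison with untreated controls. Treatment was applied at the 2-leaf stage, and plants stayed in the greenhouse for twelve to sixteen days before scoring.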

wheat = assay: Test B pre/postemergence wheat; assay type: in vivo, Triticum aestivum
Outline: as §1

giant foxtail = assay: Test B pre/postemergence giant foxtail; assay type: in vivo, Setaria faberii
Outline: as §1

crabgrass = assay: Test B pre/postemergence crabgrass; assay type: in vivo, Digitaria sanguinalis
Outline: as §1

wild oat = assay: Test B pre/postemergence wild oat; assay type: in vivo, Avena fatua
Outline: as §1

bedstraw = assay: Test B pre/postemergence bedstraw; assay type: in vivo, Galium aparine
Outline: as §1

surinam grass = assay: Test B pre/postemergence surinam grass; assay type: in vivo, Brachiaria decumbens
Outline: as §1

bamyardgrass = assay: Test B flood test barnyardgrass; assay type: in vivo, Echinochloa crus-galli
Outline: as §2

blackgrass = assay: Test B pre/postemergence blackgrass; assay type: in vivo, Alopecurus myosuroides
Outline: as §1

soybean = assay: Test B pre/postemergence soybean; assay type: in vivo, Glycine max
Outline: as §1

morningglory = assay: Test B pre/postemergence morningglory; assay type: in vivo, Ipomoea hederacea
Outline: as §1

pigweed = assay: Test B pre/postemergence pigweed; assay type: in vivo, Amaranthus retroflexus
Outline: as §1

purple nutsedge = assay: Test B pre/postemergence purple nutsedge; assay type: in vivo, Cyperus rotundus
Outline: as §1

cocklebur = assay: Test B pre/postemergence cocklebur; assay type: in vivo, Xanthium strumarium
Outline: as §1

rice = assay: Test B flood test rice; assay type: in vivo, Oryza sativa
Outline: as §2

[1] = Postemergence, Rate 62 g/ha, scale 0 to 10, 0 is no effect, 10 is complete control
[2] = Postemergence, Rate 125 g/ha, scale of 0 to 10 where 0 is no effect and 10 is complete control
[3] = Postemergence, Rate 250 g/ha, scale of 0 to 10, 0 is no effect, 10 is complete control
[4] = Preemergence, Rate 62 g/ha, scale 0 to 10 (0 no effect, 10 complete control)
[5] = Preemergence, Rate 125 g/ha, scale of 0 to 10 where 0 is no effect and 10 is complete control
[6] = Preemergence, Rate 250 g/ha, scale 0 to 10 (0 no effect, 10 complete control)
[7] = Preemergence, Rate 500 g/ha, scale of 0 to 10 where 0 is no effect and 10 is complete control
[8] = Rate 62 g/ha, flood test species, Pre-emergence, visual evaluation after twelve to sixteen days
[9] = Rate 125 g/ha, under heading Pre-emergence, flood test species, visual evaluation after twelve to sixteen days
[10] = Rate 250 g/ha, Pre-emergence (flood test species), scale 0 to 10, 0 is no effect, 10 is complete control
[11] = Rate 500 g/ha, Pre-emergence section of Table B, 0 to 10 scale (0 no effect, 10 complete control)
[12] = Postemergence, Rate 500 g/ha, scale of 0 to 10 where 0 is no effect and 10 is complete control

SMILES: CCOC(Cn1c(=O)on(C(=O)N(c2ccc(F)cc2F)C(C)C)c1=O)OCC [Compound 630]
- Plant response rating, Velvetleaf (velvetleaf; [1]): 0
- Plant response rating, Velvetleaf (velvetleaf; [2]): 4
- Velvetleaf plant response rating (velvetleaf; [3]): 4
- Velvetleaf plant response rating (velvetleaf; [4]): 0
- Velvetleaf plant response rating (velvetleaf; [5]): 1
- Plant response rating, Velvetleaf (velvetleaf; [6]): 6
- Plant response rating, Velvetleaf (velvetleaf; [7]): 7
- Plant response rating, S. Flatsedge (0 to 10 scale, 0 is no effect, 10 is complete control) (smallflower flatsedge; [8]): 0
- S. Flatsedge plant response rating (0 to 10 scale, 0 is no effect, 10 is complete control) (smallflower flatsedge; [9]): 0
- S. Flatsedge plant response rating (smallflower flatsedge; [10]): 0
- S. Flatsedge plant response rating (smallflower flatsedge; [11]): 0
- Plant response rating, Wheat (wheat; [1]): 0
- Plant response rating, Wheat (wheat; [2]): 0
- Wheat plant response rating (wheat; [3]): 0
- Wheat plant response rating (wheat; [4]): 0
- Wheat plant response rating (wheat; [5]): 0
- Plant response rating, Wheat (wheat; [6]): 3
- Plant response rating, Wheat (wheat; [7]): 8
- Plant response rating, Giant foxtail (giant foxtail; [1]): 2
- Plant response rating, Giant foxtail (giant foxtail; [2]): 7
- Giant foxtail plant response rating (giant foxtail; [3]): 8
- Plant response rating, Giant foxtail (giant foxtail; [12]): 9
- Giant foxtail plant response rating (giant foxtail; [4]): 9
- Giant foxtail plant response rating (giant foxtail; [5]): 10
- Plant response rating, Giant foxtail (giant foxtail; [6]): 10
- Plant response rating, Giant foxtail (giant foxtail; [7]): 10
- Plant response rating, Crabgrass (crabgrass; [1]): 1
- Plant response rating, Crabgrass (crabgrass; [2]): 5
- Crabgrass plant response rating (crabgrass; [3]): 8
- Crabgrass plant response rating (crabgrass; [4]): 7
- Crabgrass plant response rating (crabgrass; [5]): 8
- Plant response rating, Crabgrass (crabgrass; [6]): 9
- Plant response rating, Crabgrass (crabgrass; [7]): 9
- Plant response rating, Wild oats (wild oat; [1]): 0
- Plant response rating, Wild oats (wild oat; [2]): 0
- Wild oats plant response rating (wild oat; [3]): 0
- Wild oats plant response rating (wild oat; [4]): 0
- Wild oats plant response rating (wild oat; [5]): 3
- Plant response rating, Wild oats (wild oat; [6]): 8
- Plant response rating, Wild oats (wild oat; [7]): 8
- Plant response rating, Bedstraw (bedstraw; [1]): 0
- Bedstraw plant response rating (bedstraw; [4]): 0
- Bedstraw plant response rating (bedstraw; [5]): 0
- Plant response rating, Bedstraw (bedstraw; [6]): 0
- Plant response rating, Bedstraw (bedstraw; [7]): 7
- Plant response rating, B. signalgrass (surinam grass; [1]): 0
- Plant response rating, B. signalgrass (surinam grass; [2]): 0
- B. signalgrass plant response rating (surinam grass; [3]): 1
- Plant response rating, B. signalgrass (surinam grass; [12]): 3
- B. signalgrass plant response rating (surinam grass; [4]): 0
- B. signalgrass plant response rating (surinam grass; [5]): 3
- Plant response rating, B. signalgrass (surinam grass; [6]): 7
- Plant response rating, B. signalgrass (surinam grass; [7]): 8
- Plant response rating, Barnyardgrass (0 to 10 scale, 0 is no effect, 10 is complete control) (bamyardgrass; [8]): 0
- Barnyardgrass plant response rating (0 to 10 scale, 0 is no effect, 10 is complete control) (bamyardgrass; [9]): 0
- Barnyardgrass plant response rating (bamyardgrass; [10]): 0
- Barnyardgrass plant response rating (bamyardgrass; [11]): 0
- Plant response rating, Blackgrass (blackgrass; [1]): 0
- Plant response rating, Blackgrass (blackgrass; [2]): 0
- Blackgrass plant response rating (blackgrass; [3]): 3
- Plant response rating, Blackgrass (blackgrass; [12]): 9
- Blackgrass plant response rating (blackgrass; [4]): 5
- Blackgrass plant response rating (blackgrass; [5]): 8
- Plant response rating, Blackgrass (blackgrass; [6]): 8
- Plant response rating, Blackgrass (blackgrass; [7]): 10
- Plant response rating, Soybean (soybean; [1]): 4
- Soybean plant response rating (soybean; [3]): 5
- Soybean plant response rating (soybean; [4]): 0
- Soybean plant response rating (soybean; [5]): 0
- Plant response rating, Soybean (soybean; [6]): 0
- Plant response rating, Soybean (soybean; [7]): 3
- Plant response rating, Morningglory (morningglory; [1]): 1
- Plant response rating, Morningglory (morningglory; [2]): 2
- Morningglory plant response rating (morningglory; [3]): 2
- Plant response rating, Morningglory (morningglory; [12]): 4
- Morningglory plant response rating (morningglory; [4]): 0
- Morningglory plant response rating (morningglory; [5]): 0
- Plant response rating, Morningglory (morningglory; [6]): 0
- Plant response rating, Morningglory (morningglory; [7]): 2
- Plant response rating, Redroot pigweed (pigweed; [1]): 0
- Plant response rating, Redroot pigweed (pigweed; [2]): 0
- Redroot pigweed plant response rating (pigweed; [3]): 1
- Redroot pigweed plant response rating (pigweed; [4]): 2
- Redroot pigweed plant response rating (pigweed; [5]): 9
- Plant response rating, Redroot pigweed (pigweed; [6]): 10
- Plant response rating, Redroot pigweed (pigweed; [7]): 10
- Plant response rating, Nutsedge (purple nutsedge; [1]): 0
- Plant response rating, Nutsedge (purple nutsedge; [2]): 0
- Plant response rating, Nutsedge (purple nutsedge; [12]): 0
- Nutsedge plant response rating (purple nutsedge; [4]): 0
- Nutsedge plant response rating (purple nutsedge; [5]): 0
- Plant response rating, Nutsedge (purple nutsedge; [6]): 0
- Plant response rating, Nutsedge (purple nutsedge; [7]): 3
- Plant response rating, Cocklebur (cocklebur; [1]): 0
- Plant response rating, Cocklebur (cocklebur; [2]): 0
- Cocklebur plant response rating (cocklebur; [3]): 0
- Plant response rating, Cocklebur (cocklebur; [12]): 0
- Cocklebur plant response rating (cocklebur; [4]): 0
- Cocklebur plant response rating (cocklebur; [5]): 0
- Plant response rating, Cocklebur (cocklebur; [7]): 0
- Plant response rating, Rice (0 to 10 scale, 0 is no effect, 10 is complete control) (rice; [8]): 0
- Rice plant response rating (0 to 10 scale, 0 is no effect, 10 is complete control) (rice; [9]): 0
- Rice plant response rating (rice; [10]): 0
- Rice plant response rating (rice; [11]): 0
